# Test results: patent US20240252506A1 (Hoffmann-La Roche Inc., priority 2021, published 2024)
# System: Escherichia coli ATCC 25922
# Assay: Minimal Inhibitory Concentration (MIC) determination, broth microdilution (CLSI M07-A10)
# Format: cell-based
# Conditions: Escherichia coli, ATCC25922, strain Escherichia coli ATCC 25922, 18-24 hours at 35±2° C., lowest concentration for complete growth inhibition (no visible growth), read-out: Escherichia coli growth inhibition MIC
# Experimental: Minimal Inhibitory Concentration (MIC) Determination:
# The MIC of antibacterial compounds against multiple species and strains was determined using the broth microdilution method according to M07-A10 Clinical and Laboratory Standards Institute (CLSI) guidelines, using the appropriate broth medium. In short, the compound plates were prepared by dispensing 100 μL of each stock solution in the first well of a 96 well microtiter plate (MTP) at a concentration 100-fold higher than the final concentration desired in broth. Eleven serial 2-fold dilutions of the highest concentration were made in DMSO for new compounds and in water (or appropriate solution) for reference compounds [2]. 1 μL of each well was transferred in a new MTP, which served as the test plate by subsequent inoculation. This bacterial suspension was prepared from strains that were first sub-cultured on agar plates and incubated for 18-24 hours as appropriate. Following incubation, the inoculum was prepared from isolated colonies and adjusted to 0.5 McFarland turbidity standard (1 to 2×10^8 Colony Forming Units (CFU)/mL) in 0.9% saline. The bacterial suspension was then diluted 1:200 in appropriate sterile medium and within 15 minutes 100 μL/well were dispensed. Negative controls (lack of bacterial cells) and growth control wells (lack of compound) were included in all plates. MTPs were incubated for 18-24 hours at 35±2° C. in ambient air. The MIC value of each compound, expressed as μg/mL, was determined as the lowest concentration required for complete growth inhibition (no visible growth). • [1] CLSI (2015) Methods for dilution antimicrobial susceptibility tests for bacteria that grow aerobically; Approved Standard, Tenth Edition. CLSI Document M7-A10 (ISBN 1-56238-987-4). Wayne, PA: Clinical and Laboratory Standards Institute, 19087, USA. • [2] CLSI (2017) Performance Standards for Antimicrobial Susceptibility Testing; Twenty-Fifth Informational Supplement. CLSI Document M100-S27, CLSI, Wayne, Pennsylvania 19087, USA.
# Table 1 provides the Minimal Inhibitory Concentrations (MIC) in micrograms per millilitre of the compounds of present invention obtained against the strain Escherichia coli ATCC 25922.
row,MIC [µg/mL],Structure (SMILES)
1,2,"CC(=O)N(C)CCn1nc2c(F)c3c(c(F)c2n1)CC(CN1CCC2(CC1)CN(c1cnc4c(n1)NC(=O)CO4)C(=O)O2)C3 [Example 154, N-[2-[4,8-difluoro-6-[[2-oxo-3-(3-oxo-4H-pyrazino[2,3-b][1,4]oxazin-6-yl)-1-oxa-3,8-diazaspiro[4.5]decan-8-yl]methyl]-6,7-dihydro-5H-cyclopenta[f]benzotriazol-2-yl]ethyl]-N-methyl-acetamide]"
2,0.25,"CN(C)[C@H](CO)Cc1nc2c(F)c3c(c(F)c2[nH]1)CC(CN1CCC2(CC1)CN(c1cnc4c(n1)NC(=O)CO4)C(=O)O2)C3 [Example 63, 6-[8-[[2-[(2S)-2-(Dimethylamino)-3-hydroxy-propyl]-4,8-difluoro-3,5,6,7-tetrahydrocyclopenta[f]benzimidazol-6-yl]methyl]-2-oxo-1-oxa-3,8-diazaspiro[4.5]decan-3-yl]-4H-pyrazino[2,3-b][1,4]oxazin-3-one]"
3,0.25,"CN[C@H](CO)c1nc2c(F)c3c(c(F)c2[nH]1)CC(CN1CCC2(CC1)CN(c1cnc4c(n1)NC(=O)CO4)C(=O)O2)C3.O=C(O)C(F)(F)F [Example 56, 6-[8-[[4,8-difluoro-2-[(1S)-2-hydroxy-1-(methylamino)ethyl]-3,5,6,7-tetrahydrocyclopenta[f]benzimidaozl-6-yl]methyl]-2-oxo-1-oxa-3,8-diazaspiro[4.5]decan-3-yl]-4H-pyrazino[2,3-b][1,4]oxazin-3-one; 2,2,2-trifluoroacetic acid]"
4,0.25,"CNCCc1nc2c(F)c3c(c(F)c2[nH]1)CC(CN1CCC2(CC1)CN(c1cnc4c(n1)NC(=O)CO4)C(=O)O2)C3.O=C(O)C(F)(F)F [Example 13, 6-[8-[[4,8-difluoro-2-[2-(methylamino)ethyl]-3,5,6,7-tetrahydrocyclopenta[f]benzimidazol-6-yl]methyl]-2-oxo-1-oxa-3,8-diazaspiro[4.5]decan-3-yl]-4H-pyrazino[2,3-b][1,4]oxazin-3-one; 2,2,2-trifluoroacetic acid]"
5,0.25,"NCCn1c(=O)[nH]c2c(F)c3c(c(F)c21)CC(CN1CCC2(CC1)CN(c1cnc4c(n1)NC(=O)CO4)C(=O)O2)C3 (centres unmarked) [Example 44, 6-[8-[[1-(2-aminoethyl)-4,8-difluoro-2-oxo-3,5,6,7-tetrahydrocyclopenta[f]benzimidazol-6-yl]methyl]-2-oxo-1-oxa-3,8-diazaspiro[4.5]decan-3-yl]-4H-pyrazino[2,3-b][1,4]oxazin-3-one]"
6,0.5,"O=C1COc2ncc(N3CC4(CCN(CC5Cc6cc7nc([C@@H]8C[C@@H](O)CN8)oc7c(F)c6C5)CC4)OC3=O)nc2N1 (single isomer, unassigned) [Example 141]"
7,0.5,"CC(C)(O)c1nc2c(F)c3c(c(F)c2[nH]1)CC(CN1CCC2(CC1)CN(c1cnc4c(n1)NC(=O)CO4)C(=O)O2)C3 [Example 4, 6-[8-[[4,8-difluoro-2-(1-hydroxy-1-methyl-ethyl)-3,5,6,7-tetrahydrocyclopenta[f]benzimidazol-6-yl]methyl]-2-oxo-1-oxa-3,8-diazaspiro[4.5]decan-3-yl]-4H-pyrazino[2,3-b][1,4]oxazin-3-one]"
8,0.25,"C[C@H](N)Cn1nnc2c(F)c3c(c(F)c21)CC(CN1CCC2(CC1)CN(c1cnc4c(n1)NC(=O)CO4)C(=O)O2)C3.Cl (single isomer, unassigned) [Example 130]"
9,2,"Cc1nc2c(F)c3c(cc2n1CCN)CC(CN1CCC2(CC1)CN(c1cnc4c(n1)NC(=O)CO4)C(=O)O2)C3 (centres unmarked) [Example 73, 6-[8-[[3-(2-Aminoethyl)-8-fluoro-2-methyl-6,7-dihydro-5H-cyclopenta[f]benzimidazol-6-yl]methyl]-2-oxo-1-oxa-3,8-diazaspiro[4.5]decan-3-yl]-4H-pyrazino[2,3-b][1,4]oxain-3-one]"
10,0.125,"O=C(O)C(F)(F)F.O=C1COc2ncc(N3CC4(CCN(CC5Cc6c(c(F)c7[nH]c([C@@H]8CCCN8)nc7c6F)C5)CC4)OC3=O)nc2N1 [Example 11, 6-[8-[[4,8-difluoro-2-[(2S)-pyrrolidin-2-yl]-3,5,6,7-tetrahydrocyclopenta[f]benzimidazol-6-yl]methyl]-2-oxo-1-oxa-3,8-diazaspiro[4.5]decan-3-yl]-4H-pyrazino[2,3-b][1,4]oxazin-3-one; 2,2,2-trifluoroacetic acid]"

row,Structure (SMILES),MIC [µg/mL]
1,"O=C1COc2ncc(N3CC4(CCN(CC5Cc6cc7nnn(C8CNC8)c7c(F)c6C5)CC4)OC3=O)nc2N1.O=CO (single isomer, unassigned) [Example 114]",0.25

# Same assay, conditions: strain Escherichia coli ATCC 25922, 18-24 hours at 35±2° C., lowest concentration for complete growth inhibition (no visible growth)
row,Escherichia coli growth inhibition MIC [µg/mL],Structure (SMILES)
1,1,"N[C@H]1COC[C@@H]1c1nc2cc3c(c(F)c2o1)CC(CN1CCC2(CC1)CN(c1cnc4c(n1)NC(=O)CO4)C(=O)O2)C3 (stereo partly drawn) [Example 139, 6-[8-[[2-[(3R,4R)-4-Aminotetrahydrofuran-3-yl]-8-fluoro-6,7-dihydro-5H-cyclopenta[f][1,3]benzoxazol-6-yl]methyl]-2-oxo-1-oxa-3,8-diazaspiro[4.5]decan-3-yl]-4H-pyrazino[2,3-b][1,4]oxazin-3-one]"
2,≤0.06,"NCCn1nnc2cc3c(c(F)c21)CC(CN1CCC2(CC1)CN(c1cnc4c(n1)NC(=O)CO4)C(=O)O2)C3 (single isomer, unassigned) [Example 81, 6-[2-oxo-8-[[1-(2-aminoethyl)-8-fluoro-6,7-dihydro-5H-cyclopenta[f]benzotriazol-6-yl]methyl]-1-oxa-3,8-diazaspiro[4.5]decan-3-yl]-4H-pyrazino[2,3-b][1,4]oxazin-3-one]"
3,0.25,"O=C1COc2ncc(N3CC4(CCN(CC5Cc6cc7nc(C8CNC8)oc7c(F)c6C5)CC4)OC3=O)nc2N1 (single isomer, unassigned) [Example 101, 6-[2-oxo-8-[[2-(azetidin-3-yl)-8-fluoro-6,7-dihydro-5H-cyclopenta[f][1,3]benzoxazol-6-yl]methyl]-1-oxa-3,8-diazaspiro[4.5]decan-3-yl]-4H-pyrazino[2,3-b][1,4]oxazin-3-one]"
4,1,"O=C1COc2ncc(N3CC4(CCN(CC5Cc6cc7nc(CN8CC(O)C8)oc7c(F)c6C5)CC4)OC3=O)nc2N1 (single isomer, unassigned) [Example 99, 6-[8-[[8-fluoro-2-[(3-hydroxyazetidin-1-yl)methyl]-6,7-dihydro-5H-cyclopenta[f][1,3]benzoxazol-6-yl]methyl]-2-oxo-1-oxa-3,8-diazaspiro[4.5]decan-3-yl]-4H-pyrazino[2,3-b][1,4]oxazin-3-one]"

row,Structure (SMILES),Escherichia coli growth inhibition MIC [µg/mL]
1,"C[C@H](N)Cn1cnc2c(F)c3c(c(F)c21)CC(CN1CCC2(CC1)CN(c1cnc4c(n1)NC(=O)CO4)C(=O)O2)C3 (stereo partly drawn) [Example 129, 6-[8-[[1-[(2S)-2-aminopropyl]-4,8-difluoro-6,7-dihydro-5H-cyclopenta[f]benzimidazol-6-yl]methyl]-2-oxo-1-oxa-3,8-diazaspiro[4.5]decan-3-yl]-4H-pyrazino[2,3-b][1,4]oxazin-3-one; formic acid]",0.25

# Same assay, conditions: strain Escherichia coli ATCC 25922, 18-24 hours at 35±2° C., lowest concentration for complete growth inhibition (no visible growth), hydrochloride
row,Escherichia coli growth inhibition MIC [µg/mL],Structure (SMILES)
1,0.125,"C[C@H](N)Cn1nnc2c(F)c3c(c(F)c21)CC(CN1CCC2(CC1)CN(c1cnc4c(n1)NC(=O)CO4)C(=O)O2)C3.Cl (single isomer, unassigned) [Example 131]"
